Reference: PMC4703546 (Bioorganic & medicinal chemistry, 2015)

Assays:
[1] = system: all c-Met-dependant cell lines; experiment: MTT proliferation assay, panel summary; format: cell-based; conditions: Homo sapiens, read-out: IC50 range, antiproliferative activity
[2] = system: c-Met in MDA-MB-231 cells; experiment: Western blot analysis of c-Met and p-c-Met levels; format: cell-based, human; conditions: MDA-MB-231, 15 and 30 μM, 48 h
[3] = system: HL-60 cells; conditions: HL-60, 5 and 10 μM; cited from earlier work
[4] = system: non-tumorigenic human mammary epithelial cells MCF-10A
[5] = system: MDA-MB-231/GFP; experiment: Orthotopic athymic nude mouse xenograft model; format: in vivo, athymic nude mice; conditions: 10 mg/kg i.p. 3 times per week

Compound `C=CC(C)(C)[C@@]12C[C@H]3C(=O)N/C(=C/c4c[nH]cn4)C(=O)N3[C@@H]1Nc1ccccc12` [Roquefortine C (2), roquefortine C] has an IC50 [1] of 20 to 40 µM.

For `C=CC(C)(C)[C@@]12C=C(O)C(=O)N3/C(=C/c4cnc[nH]4)C(=O)N[C@]31N(OC)c1ccccc12` [Meleagrin (1), meleagrin], the “effect on phosphorylated (activated) c-Met level” value [2] is listed as “significant reduction”, the “effect on total c-Met level” value [2] is listed as “no effect” and the “cytotoxic mechanism by flow cytometric analysis” value [3] is listed as “arrested the cell cycle through G2/M phase”. For the same compound, the “toxicity towards MCF-10A cells” value [4] was “minimal”, the IC50 [1] was 1.8 to 8.9 µM and the “effect on body weight gains and gross phenotype” value ([5]; listed as meleagrin) was “not adversely affecting”. The “effect on body weight gains and gross phenotype” value ([5]; listed as meleagrin (1)) was “no significant changes”.

For `C=CC(C)(C)[C@@]12C=C(O)C(=O)N3/C(=C/c4cn([C@H]5C[C@@]6(O)O[C@@H]7C[C@@]6(C)[C@]6(C[C@]8(C)CCC(C)(C)[C@@H]8[C@@H]76)[C@@H]5C)cn4)C(=O)N[C@]31N(OC)c1ccccc12` [Meleagrin B], the “cytotoxic mechanism by flow cytometric analysis” value [3] is listed as “induced HL-60 cells apoptosis”.

`O=C1N[C@@H](Cc2c[nH]c3ccccc23)C(=O)N/C1=C/c1cnc[nH]1` [DHTD (3), dehydrohistidyltryptophenyl-diketopiperazine] showed an IC50 [1] of 20 to 40 µM.
